Assay results as given in the supplement of paper PMC8741786.
In brackets after ≈: the same amount, converted by molar mass.

Tests used:
Test in all cases: minimum inhibitory concentration (ETEST)
Neisseria lactamica = details: population: general population, antibiotic use in previous 6 months: No
Protocol: (§1)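 Oropharyngeal Neisseria isolates from MSM and employees in Belgium were identified to species by MALDI-TOF MS. MICs of azithromycin, ceftriaxone and ciprofloxacin were determined by ETEST on GC agar after 24 h at 36.5 °C and 5-7% CO2, in mg/L. Values beyond the strip range are reported as >256 (azithromycin) or <0.016 (ceftriaxone); isolates that did not grow are NA.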

Neisseria meningitidis = tested on: Neisseria meningitidis
Protocol: as §1

Neisseria oralis = details: population: general population, antibiotic use in previous 6 months: No
Protocol: as §1

Neisseria cinerea = details: population: general population, antibiotic use in previous 6 months: No
Protocol: as §1

Neisseria elongata = details: population: general population, antibiotic use in previous 6 months: No
Protocol: as §1

Neisseria gonorrhoeae = details: isolate id (sample isolate): 19113052_3; population: MSM; antibiotic use in previous 6 months: No
Protocol: as §1

Neisseria bacilliformis = details: isolate id (sample isolate): Co000780_5; population: general population; antibiotic use in previous 6 months: No
Protocol: as §1

CO/N=C(\C(=O)N[C@@H]1C(=O)N2C(C(=O)O)=C(CSc3nc(=O)c(O)nn3C)CS[C@H]12)c1csc(N)n1 [ceftriaxone]
Details	minimum inhibitory concentration [mg/L]
Neisseria cinerea, isolate id (sample isolate): Co000769_3	< 0.016
Neisseria cinerea, isolate id (sample isolate): Co000776_4	< 0.016
Neisseria cinerea, isolate id (sample isolate): Co000776_5	< 0.016
Neisseria cinerea, isolate id (sample isolate): Co000782_1	< 0.016
Neisseria elongata, isolate id (sample isolate): Co000767_3	0.19 (≈ 0.343 µM)
Neisseria elongata, isolate id (sample isolate): Co000780_1	0.047 (≈ 0.0847 µM)
Neisseria elongata, isolate id (sample isolate): Co000783_4	0.023 (≈ 0.0415 µM)
Neisseria lactamica, isolate id (sample isolate): Co000761_1	< 0.016
Neisseria lactamica, isolate id (sample isolate): Co000771_1	< 0.016
Neisseria oralis, isolate id (sample isolate): Co000761_7	0.064 (≈ 0.115 µM)
Neisseria oralis, isolate id (sample isolate): Co000763_1	0.032 (≈ 0.0577 µM)
Neisseria oralis, isolate id (sample isolate): Co000766_2	0.023 (≈ 0.0415 µM)
Neisseria oralis, isolate id (sample isolate): Co000770_1	0.064 (≈ 0.115 µM)
Neisseria oralis, isolate id (sample isolate): Co000774_1	0.032 (≈ 0.0577 µM)
Neisseria oralis, isolate id (sample isolate): Co000776_1	0.047 (≈ 0.0847 µM)
Neisseria oralis, isolate id (sample isolate): Co000776_1.1	0.047 (≈ 0.0847 µM)
Neisseria oralis, isolate id (sample isolate): Co000779_2	0.094 (≈ 0.169 µM)
Neisseria oralis, isolate id (sample isolate): Co000790_5	0.064 (≈ 0.115 µM)

Neisseria meningitidis
Details	minimum inhibitory concentration [mg/L]
isolate id (sample isolate): 19040471_1, population: MSM, antibiotic use in previous 6 months: No	< 0.016
isolate id (sample isolate): 19040855_1, population: MSM, antibiotic use in previous 6 months: No	< 0.016
isolate id (sample isolate): 19040874_2, population: MSM, antibiotic use in previous 6 months: No	0.016 (≈ 0.0289 µM)
isolate id (sample isolate): 19040900_2, population: MSM, antibiotic use in previous 6 months: No	0.023 (≈ 0.0415 µM)
isolate id (sample isolate): 19042150_2, population: MSM, antibiotic use in previous 6 months: Yes	< 0.016
isolate id (sample isolate): 19042756_3, population: MSM, antibiotic use in previous 6 months: Yes	< 0.016
isolate id (sample isolate): 19043201_1, population: MSM, antibiotic use in previous 6 months: No	< 0.016
isolate id (sample isolate): 19043201_2, population: MSM, antibiotic use in previous 6 months: No	< 0.016
isolate id (sample isolate): 19043274_1, population: MSM, antibiotic use in previous 6 months: Yes	< 0.016
isolate id (sample isolate): 19043274_2, population: MSM, antibiotic use in previous 6 months: Yes	0.016 (≈ 0.0289 µM)
isolate id (sample isolate): 19051853_1, population: MSM, antibiotic use in previous 6 months: No	< 0.016
isolate id (sample isolate): 19052394_3, population: MSM, antibiotic use in previous 6 months: Yes	< 0.016
isolate id (sample isolate): 19052434_1, population: MSM, antibiotic use in previous 6 months: Yes	< 0.016
isolate id (sample isolate): 19060069_1, population: MSM, antibiotic use in previous 6 months: Yes	0.064 (≈ 0.115 µM)
isolate id (sample isolate): 19060069_2, population: MSM, antibiotic use in previous 6 months: Yes	0.064 (≈ 0.115 µM)
isolate id (sample isolate): 19060089_2, population: MSM, antibiotic use in previous 6 months: Yes	< 0.016
isolate id (sample isolate): 19061666_1, population: MSM, antibiotic use in previous 6 months: Yes	1 (≈ 1.8 µM)
isolate id (sample isolate): 19062990_1, population: MSM, antibiotic use in previous 6 months: Yes	< 0.016
isolate id (sample isolate): 19070019_2, population: MSM, antibiotic use in previous 6 months: No	0.047 (≈ 0.0847 µM)
isolate id (sample isolate): 19070019_4, population: MSM, antibiotic use in previous 6 months: No	0.064 (≈ 0.115 µM)
isolate id (sample isolate): 19070047_1, population: MSM, antibiotic use in previous 6 months: No	< 0.016
isolate id (sample isolate): 19082621_2, population: MSM, antibiotic use in previous 6 months: No	< 0.016
isolate id (sample isolate): 19091461_1, population: MSM, antibiotic use in previous 6 months: No	< 0.016
isolate id (sample isolate): 19091461_2, population: MSM, antibiotic use in previous 6 months: No	< 0.016
isolate id (sample isolate): 19091973_1, population: MSM, antibiotic use in previous 6 months: No	< 0.016
isolate id (sample isolate): 19092429_3, population: MSM, antibiotic use in previous 6 months: No	< 0.016
isolate id (sample isolate): 19103457_1, population: MSM, antibiotic use in previous 6 months: No	< 0.016
isolate id (sample isolate): 19103457_4, population: MSM, antibiotic use in previous 6 months: No	< 0.016
isolate id (sample isolate): 19110394_1, population: MSM, antibiotic use in previous 6 months: No	< 0.016
isolate id (sample isolate): 19113049_3, population: MSM, antibiotic use in previous 6 months: No	< 0.016
isolate id (sample isolate): 19113049_6, population: MSM, antibiotic use in previous 6 months: No	< 0.016
isolate id (sample isolate): Co000765_1, population: general population, antibiotic use in previous 6 months: No	< 0.016
isolate id (sample isolate): Co000790_1, population: general population, antibiotic use in previous 6 months: No	< 0.016
isolate id (sample isolate): Co000790_3, population: general population, antibiotic use in previous 6 months: No	< 0.016

Details	minimum inhibitory concentration [mg/L]
Neisseria bacilliformis	1.5 (≈ 2.7 µM)
Neisseria gonorrhoeae	< 0.016
